Source: the supplement of paper PMC11451515

Test system: SEM cells
Assay: cell viability relative to DMSO control; higher = less cytotoxic
Details: 48 h
Outline: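 Viability is expressed as a percentage of DMSO wells within each plate, and cell-free wells serve as background. Seeding densities in the 1536-well plates (5 μl) were 500 cells/well for NOMO1 or SEM leukemia cells and 1000 cells/well for P12-Ichikawa. Each line was adapted for at least four passages in each medium. Library compounds in DMSO were pin-dosed at 47 μM to 0.79 nM (11 points, threefold), and CellTiter-Glo One luminescence was read after 48 h at 37°C.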

[1] = HPLM + 10% dialyzed FBS, 0.000781 µM
[2] = HPLM + 10% dialyzed FBS, 0.00234 µM
[3] = HPLM + 10% dialyzed FBS, 0.00702 µM
[4] = HPLM + 10% dialyzed FBS, 0.0211 µM
[5] = HPLM + 10% dialyzed FBS, 0.0632 µM
[6] = HPLM + 10% dialyzed FBS, 0.19 µM
[7] = HPLM + 10% dialyzed FBS, 0.569 µM
[8] = HPLM + 10% dialyzed FBS, 1.71 µM
[9] = HPLM + 10% dialyzed FBS, 5.12 µM
[10] = HPLM + 10% dialyzed FBS, 15.4 µM
[11] = HPLM + 10% dialyzed FBS, 46.1 µM
[12] = RPMI 5 mM glucose + 10% FBS, 0.000781 µM
[13] = RPMI 5 mM glucose + 10% FBS, 0.00234 µM
[14] = RPMI 5 mM glucose + 10% FBS, 0.00702 µM
[15] = RPMI 5 mM glucose + 10% FBS, 0.0211 µM
[16] = RPMI 5 mM glucose + 10% FBS, 0.0632 µM
[17] = RPMI 5 mM glucose + 10% FBS, 0.19 µM
[18] = RPMI 5 mM glucose + 10% FBS, 0.569 µM
[19] = RPMI 5 mM glucose + 10% FBS, 1.71 µM
[20] = RPMI 5 mM glucose + 10% FBS, 5.12 µM
[21] = RPMI 5 mM glucose + 10% FBS, 15.4 µM
[22] = RPMI 5 mM glucose + 10% FBS, 46.1 µM
[23] = RPMI 5 mM glucose + 10% dialyzed FBS, 0.000781 µM
[24] = RPMI 5 mM glucose + 10% dialyzed FBS, 0.00234 µM
[25] = RPMI 5 mM glucose + 10% dialyzed FBS, 0.00702 µM
[26] = RPMI 5 mM glucose + 10% dialyzed FBS, 0.0211 µM
[27] = RPMI 5 mM glucose + 10% dialyzed FBS, 0.0632 µM
[28] = RPMI 5 mM glucose + 10% dialyzed FBS, 0.19 µM
[29] = RPMI 5 mM glucose + 10% dialyzed FBS, 0.569 µM
[30] = RPMI 5 mM glucose + 10% dialyzed FBS, 1.71 µM
[31] = RPMI 5 mM glucose + 10% dialyzed FBS, 5.12 µM
[32] = RPMI 5 mM glucose + 10% dialyzed FBS, 15.4 µM
[33] = RPMI 5 mM glucose + 10% dialyzed FBS, 46.1 µM

Molecule `COc1ncnc(N[S+](=O)([O-])c2ccc(N)cc2)c1OC` has a cell viability [1] of 33.3%, a cell viability [2] of 74% and a cell viability [3] of 64.9%. It also gave a cell viability [4] of 77.8%, a cell viability [5] of 96.9% and a cell viability [6] of 75.1%. The cell viability [7] was 77.2%, the cell viability [8] was 46.8% and the cell viability [9] was 11.4%. For the same molecule, the cell viability [10] was 5.63%, the cell viability [11] was 6.09% and the cell viability [12] was 46%. The cell viability [13] was 102%, the cell viability [14] was 82.5% and the cell viability [15] was 96.4%. The cell viability [16] was 101%, the cell viability [17] was 88.3% and the cell viability [18] was 59.3%. For the same molecule, the cell viability [19] was 44%, the cell viability [20] was 6.03% and the cell viability [21] was 4.36%. For the same molecule, the cell viability [22] was 5.06%, the cell viability [23] was 39.2% and the cell viability [24] was 96.9%. It also gave a cell viability [25] of 79.2%, a cell viability [26] of 114% and a cell viability [27] of 118%. For the same molecule, the cell viability [28] was 92.6%, the cell viability [29] was 86.1% and the cell viability [30] was 50.4%. For the same molecule, the cell viability [31] was 17.9%, the cell viability [32] was 8.47% and the cell viability [33] was 8.64%.
`CN(C)c1nc(Cc2ccc(NC(=O)c3ccc4ccccc4c3)cc2)nc(Cl)c1CC(=O)O` gave a cell viability [1] of 120%, a cell viability [2] of 114% and a cell viability [3] of 112%. The cell viability [4] was 116%, the cell viability [5] was 109% and the cell viability [6] was 111%. For the same molecule, the cell viability [7] was 138%, the cell viability [8] was 113% and the cell viability [9] was 105%. It also gave a cell viability [10] of 110%, a cell viability [11] of 105% and a cell viability [12] of 110%. For the same molecule, the cell viability [13] was 116%, the cell viability [14] was 127% and the cell viability [15] was 108%. For the same molecule, the cell viability [16] was 107%, the cell viability [17] was 110% and the cell viability [18] was 110%. For the same molecule, the cell viability [19] was 93.8%, the cell viability [20] was 107% and the cell viability [21] was 102%. For the same molecule, the cell viability [22] was 105%, the cell viability [23] was 119% and the cell viability [24] was 115%. It also gave a cell viability [25] of 136%, a cell viability [26] of 122% and a cell viability [27] of 126%. For the same molecule, the cell viability [28] was 108%, the cell viability [29] was 112% and the cell viability [30] was 107%. The cell viability [31] was 111%, the cell viability [32] was 137% and the cell viability [33] was 108%.
Molecule `CN1C(=O)C[C@H](C(=O)N[C@@H](Cc2cnc[nH]2)C(=O)N2CCC[C@H]2C(N)=O)NC1=O` has a cell viability [1] of 117%, a cell viability [2] of 108% and a cell viability [3] of 142%. For the same molecule, the cell viability [4] was 121%, the cell viability [5] was 111% and the cell viability [6] was 127%. It also gave a cell viability [7] of 122%, a cell viability [8] of 120% and a cell viability [9] of 116%. The cell viability [10] was 97.4%, the cell viability [11] was 74.3% and the cell viability [23] was 104%. It also gave a cell viability [24] of 118%, a cell viability [25] of 120% and a cell viability [26] of 122%. The cell viability [27] was 105%, the cell viability [28] was 112% and the cell viability [29] was 104%. For the same molecule, the cell viability [30] was 103%, the cell viability [31] was 104% and the cell viability [32] was 98.1%. For the same molecule, the cell viability [33] was 50.1%.
`O=C(Oc1ccc([N+](=O)[O-])cc1)N1CCC(C(O)(c2ccc3c(c2)OCO3)c2ccc3c(c2)OCO3)CC1` gave a cell viability [1] of 72.2%, a cell viability [2] of 89.4% and a cell viability [3] of 64.5%. For the same molecule, the cell viability [4] was 97%, the cell viability [5] was 86.3% and the cell viability [6] was 94.8%. For the same molecule, the cell viability [7] was 99.7%, the cell viability [8] was 83.7% and the cell viability [9] was 46.6%. It also gave a cell viability [10] of 93.5%, a cell viability [11] of 86.1% and a cell viability [12] of 83.3%. For the same molecule, the cell viability [13] was 72%, the cell viability [14] was 58.6% and the cell viability [15] was 93.2%. The cell viability [16] was 94.5%, the cell viability [17] was 90.4% and the cell viability [18] was 84%. It also gave a cell viability [19] of 78.6%, a cell viability [20] of 35.4% and a cell viability [21] of 99.3%. The cell viability [22] was 85.5%, the cell viability [23] was 90.1% and the cell viability [24] was 95%. For the same molecule, the cell viability [25] was 61.6%, the cell viability [26] was 95.9% and the cell viability [27] was 88.6%. It also gave a cell viability [28] of 94.7%, a cell viability [29] of 97.9% and a cell viability [30] of 99.3%. The cell viability [31] was 46.3%, the cell viability [32] was 96.2% and the cell viability [33] was 98.2%.
`Nc1cccc2c1CN([C@H]1CCC(=O)NC1=O)C2=O` gave a cell viability [1] of 120%, a cell viability [2] of 131% and a cell viability [3] of 110%. For the same molecule, the cell viability [4] was 121%, the cell viability [5] was 115% and the cell viability [6] was 114%. It also gave a cell viability [7] of 103%, a cell viability [8] of 97.6% and a cell viability [9] of 81.8%. It also gave a cell viability [10] of 99.5%, a cell viability [11] of 89.5% and a cell viability [23] of 109%. It also gave a cell viability [24] of 108%, a cell viability [25] of 117% and a cell viability [26] of 111%. The cell viability [27] was 120%, the cell viability [28] was 109% and the cell viability [29] was 111%. For the same molecule, the cell viability [30] was 103%, the cell viability [31] was 103% and the cell viability [32] was 88.8%. The cell viability [33] was 81.4%.
For `CC1(N2CCC(n3c([C@@H]4CCCNC4)nc4ccccc43)CC2)CCCCCCC1`, the cell viability [1] was 76.6%, the cell viability [2] was 88.6% and the cell viability [3] was 99.7%. For the same molecule, the cell viability [4] was 105%, the cell viability [5] was 105% and the cell viability [6] was 89.3%. For the same molecule, the cell viability [7] was 103%, the cell viability [8] was 96% and the cell viability [9] was 92.5%. It also gave a cell viability [10] of 72.2%, a cell viability [11] of 42.4% and a cell viability [12] of 99.3%. For the same molecule, the cell viability [13] was 87.8%, the cell viability [14] was 105% and the cell viability [15] was 119%. The cell viability [16] was 121%, the cell viability [17] was 107% and the cell viability [18] was 119%. For the same molecule, the cell viability [19] was 116%, the cell viability [20] was 109% and the cell viability [21] was 96.6%. The cell viability [22] was 87.3%, the cell viability [23] was 103% and the cell viability [24] was 78.8%. The cell viability [25] was 98.7%, the cell viability [26] was 111% and the cell viability [27] was 106%. For the same molecule, the cell viability [28] was 95.7%, the cell viability [29] was 117% and the cell viability [30] was 113%. The cell viability [31] was 130%, the cell viability [32] was 77.3% and the cell viability [33] was 87.6%.
`COc1cc2c(Nc3ccc(Br)cc3F)ncnc2cc1OCC1CCN(C)CC1` showed a cell viability [1] of 45.3%, a cell viability [2] of 81.6% and a cell viability [3] of 94.3%. For the same molecule, the cell viability [4] was 69.3%, the cell viability [5] was 71.4% and the cell viability [6] was 76.8%. The cell viability [7] was 72.2%, the cell viability [8] was 65% and the cell viability [9] was 79.4%. For the same molecule, the cell viability [10] was 31%, the cell viability [11] was 66.2% and the cell viability [12] was 67.3%. For the same molecule, the cell viability [13] was 124%, the cell viability [14] was 111% and the cell viability [15] was 112%. It also gave a cell viability [16] of 118%, a cell viability [17] of 110% and a cell viability [18] of 84.2%. It also gave a cell viability [19] of 88.7%, a cell viability [20] of 98.1% and a cell viability [21] of 58.9%. For the same molecule, the cell viability [22] was 74.1%, the cell viability [23] was 40% and the cell viability [24] was 83.4%. For the same molecule, the cell viability [25] was 91%, the cell viability [26] was 89.2% and the cell viability [27] was 63.7%. The cell viability [28] was 80.7%, the cell viability [29] was 81.7% and the cell viability [30] was 63.2%. It also gave a cell viability [31] of 79.1%, a cell viability [32] of 42.5% and a cell viability [33] of 63.5%.
`CC[C@@]1(O)C(=O)OC\C2=C1\C=C\3N(CC4=C3N=C5C=CC=CC5=C4)C2=O` was tested, and the cell viability [1] was 126%, the cell viability [2] was 116% and the cell viability [3] was 110%. The cell viability [4] was 103%, the cell viability [5] was 40.3% and the cell viability [6] was 14.9%. The cell viability [7] was 7.26%, the cell viability [8] was 4.92% and the cell viability [9] was 4.54%. For the same molecule, the cell viability [10] was 4.65%, the cell viability [11] was 5.06% and the cell viability [12] was 105%. The cell viability [13] was 86.8%, the cell viability [14] was 87.2% and the cell viability [15] was 55.3%. For the same molecule, the cell viability [16] was 15.3%, the cell viability [17] was 11.4% and the cell viability [18] was 6.29%. It also gave a cell viability [19] of 3.5%, a cell viability [20] of 3.72% and a cell viability [21] of 3.35%. It also gave a cell viability [22] of 4.07%, a cell viability [23] of 127% and a cell viability [24] of 119%. For the same molecule, the cell viability [25] was 105%, the cell viability [26] was 77.2% and the cell viability [27] was 28.1%. It also gave a cell viability [28] of 13.4%, a cell viability [29] of 7.26% and a cell viability [30] of 4.41%. The cell viability [31] was 4.16%, the cell viability [32] was 4.15% and the cell viability [33] was 4.83%.
